Where two headings read alike, the source gives them in different places.
Legend:
[1] = Metabolic stability in dog liver microsomes; format: in vitro ADME; details: for CLint scaled at 1 µM / half-life at 1 µM: pH 7.4; for CLint scaled at 1 µM: read-out: Predicted CL int, iv vivo; for half-life at 1 µM: read-out: in vitro t1/2
Method: FMO was deactivated by heating liver microsomes at 45°C for 5 min. […] The natural logarithm of the percentage of the drug remaining was plotted against the incubation time, and the slope of the linear regression (-k) was converted to in vitro half-lives (t1/2) using the following equation: […] (1) metabolic clearance is the major mechanism of clearance; (2) liver is the major organ of clearance; and (3) oxidation is the major metabolic pathway. CLint,in vitro=k / Cmicrosomes , Scaled CLint,in vivo=CLint,in vitro×microsomes yield×liver weight, where Cmicrosomes means the experimental protein concentration (0.5 mg/mL) in the incubation system. […] Then, the scaled in vivo intrinsic clearance was used to predict the systemic clearance (equal to the hepatic clearance) using the well-stirred venous equilibration model ([Houston, 1994]).

[2] = cited from earlier work
[3] = humans, RP2D 30 mg, phase Ib (n = 90); ref European Society for Medical Oncology, 2021; cited from earlier work
[4] = FMO-deactivated liver microsomes, female dog liver microsomes, FMO deactivation
[5] = FMO-deactivated liver microsomes, male dog liver microsomes, FMO deactivation
[6] = female dog liver microsomes, normal
[7] = male dog liver microsomes, normal

Structure (SMILES): C[C@H](Nc1ncnc(N)c1C#N)c1cc2ncc(Cl)n2nc1-c1ccccc1 [Amdizalisib]
- CLint scaled at 1 µM [1, 4]: 50.4 mL/min/kg
- half-life at 1 µM [1, 4]: 39.6 min
- CLint scaled at 1 µM [1, 5]: 19.9 mL/min/kg
- half-life at 1 µM [1, 5]: 100 min
- Predicted CL sys ([1]; female dog liver microsomes, FMO deactivation): 19.2 mL/min/kg
- Predicted CL sys [1, 6]: 18.8 mL/min/kg
- Predicted CL sys ([1]; male dog liver microsomes, FMO deactivation): 12.1 mL/min/kg
- Predicted CL sys [1, 7]: 12.4 mL/min/kg
- CLint scaled at 1 µM [1, 6]: 48.1 mL/min/kg
- half-life at 1 µM [1, 6]: 41.5 min
- CLint scaled at 1 µM [1, 7]: 20.7 mL/min/kg
- half-life at 1 µM [1, 7]: 96.3 min
- maximal unbound plasma concentration at steady state ([2]; 30 mg QD in humans): ~52.1 nM
- observed human value (Vss/F) ([2]; human): 2.33 L/kg
- reported human CLss/F ([2]; human): 3.25 mL/min/kg
- Grade 3 diarrhea [3]: 2.2%
- colitis [3]: no colitis cases were reported
- serious GI toxicity [3]: less than 5%
